Like-named read-outs stand apart in the source and are kept apart here.
How the values were obtained:
vitamin D receptor (VDR) = biological target: T1, vitamin D receptor (VDR) (Homo sapiens, UniProt P11473); assay: vitamin D-dependent transcriptional activation: growth hormone production in transfected COS-1 cells; format: cell-based; conditions: inducer molar concentration 10^-9; total minus ethanol control
T1 construct: RXR partner endogenous (monkey)
T1 sequence (P11473 1-427): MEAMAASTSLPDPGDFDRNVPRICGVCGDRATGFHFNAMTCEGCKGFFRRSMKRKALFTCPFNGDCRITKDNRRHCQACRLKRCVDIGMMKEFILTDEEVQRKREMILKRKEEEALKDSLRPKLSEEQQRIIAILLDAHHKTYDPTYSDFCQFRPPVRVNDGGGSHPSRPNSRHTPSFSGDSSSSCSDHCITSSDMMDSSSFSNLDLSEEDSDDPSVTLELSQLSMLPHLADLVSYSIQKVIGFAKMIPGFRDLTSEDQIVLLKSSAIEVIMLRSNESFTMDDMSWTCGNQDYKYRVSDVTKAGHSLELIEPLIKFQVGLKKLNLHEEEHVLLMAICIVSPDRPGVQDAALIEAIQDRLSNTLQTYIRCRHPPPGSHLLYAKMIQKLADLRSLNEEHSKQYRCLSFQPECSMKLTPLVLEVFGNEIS
Procedure: The biological activity in vitro of chemically synthesized 1α,24(S)-(OH)2 D2 and 1α,24(R)-(OH)2 D2 was measured using a vitamin D-dependent transcriptional activation model system in which a vitamin D receptor (VDR)-expressing plasmid pSG5-hVDR1/3and a plasmid p(CT4)^4 TKGH containing a Growth Hormone (GH)-gene, under the control of a vitamin D-responsive element (VDRE) were co-transfected into Green monkey kidney, COS-1 cells. DNA's for these two vectors were supplied by Dr. Mark Haussler, Department of Biochemistry, University of Arizona, Tucson, Ariz.
Tranfected cells were incubated with vitamin D metabolites and growth hormone production was measured.

[1] = tested on: 1,25-(OH)2 D3 receptor site; conditions: Ishizuka et al., Steroids 1981, 1982; cited from earlier work
[2] = tested on: human osteoporotic patients; conditions: humans; cited from earlier work
[3] = blood levels of metabolites in osteoporotic women administered 1α-OH-D2; format: in vivo, human; conditions: one day after a single 2 μg dose of 1α-OH-D2, women
Procedure: An increase in the production of 1α,24(S)-(OH)2 D2 relative to 1α,25-(OH)2 D2 has also been observed by the present inventors in human females who received 1α-OH-D2 as part of an investigation of that drug for the treatment of osteoporosis. Following either a single dose of 2 μg of 1α-OH-D2 or daily doses of 8 μg/day for one week, blood was collected and analyzed for the metabolites 1α,24(S)-(OH)2 D2 and 1α,25-(OH)2 D2. Lipid was extracted from the blood, and the metabolites were purified by HPLC using standard methods and quantified with the radioreceptor assay produced by Incstar (Stillwater, Minn.). One day after a single 2 μg dose, the level of 1α,24(S)-(OH)2 D2 was undetectable with the 1α,25-(OH)2 D2 level being approximately 11 pg/ml. In contrast, one day following the last dose of 8 μg, the level of 1α,24(S)-(OH)2 D2 averaged 9 pg/ml with the 1α,25-(OH)2 D2 level averaging 30 pg/ml.

[4] = format: in vivo, rat
Procedure: Vitamin D2 or 24-OH-D2 was administered (either oral or intraperitoneal supplementation) to vitamin D-deficient rats. Lipid extracts of the plasma were prepared and the metabolites purified by the method of Horst et al. (Horst, A. L., Koszewski, N. J. and Reinhardt, T. A., Biochem., 29:578-82 (1990)) described below for synthesyzing standard biological 1α,24-(OH)2 D2.
Standard biological 1α,24-(OH)2 D2 was synthesized in vitro from 24-OH-D2 by incubating 10 μg of 24-OH-D2 in flask containing 5 ml of 20% kidney homogenates made from vitamin D-deficient chicks. The product of this reaction was isolated by HPLC and identified by mass spectrometry.

C=C1/C(=C\C=C2/CCC[C@]3(C)[C@@H]([C@H](C)/C=C/[C@](C)(O)C(C)C)CC[C@@H]23)C[C@@H](O)C[C@@H]1O [1α,24(R)-(OH)2 D2, 1α,24(R)-dihydroxy vitamin D2]
Net vitamin D-inducible GH-production (vitamin D receptor (VDR)): 36 ng/mL

C=C1/C(=C\C=C2/CCC[C@]3(C)[C@@H]([C@H](C)CC[C@@H](O)C(C)C)CC[C@@H]23)C[C@@H](O)C[C@@H]1O [1α,24(R)-(OH)2 D3, 1α,24(R)-dihydroxyvitamin D3]
binding to the 1,25-(OH)2 D3 receptor site relative to 1,25-(OH)2 D3 [1]: more tightly than does 1,25-(OH)2 D3 itself

C=C1/C(=C\C=C2/CCC[C@]3(C)[C@@H]([C@H](C)CCCC(C)C)CC[C@@H]23)C[C@@H](O)C[C@@H]1O [1α-(OH) D3, 1α-hydroxy vitamin D3]
tolerability of dosage levels of 2.0 μg/day or greater [2]: not safely obtained

C=C1/C(=C\C=C2/CCC[C@]3(C)[C@@H]([C@H](C)/C=C/[C@H](C)C(C)C)CC[C@@H]23)C[C@@H](O)C[C@@H]1O [1α-OH-D2, 1α-hydroxy vitamin D2]
blood level of metabolite 1α,24(S)-(OH)2 D2 [3]: undetectable

C=C1CC[C@H](O)C/C1=C/C=C1\CCC[C@]2(C)[C@@H]([C@H](C)/C=C/C(C)(O)C(C)C)CC[C@@H]12 (stereo partly shown) [24-OH-D2, 24-hydroxyvitamin D2]
plasma metabolite 1α,24-(OH)2 D2 found after administration ([4]; rat, in vivo): co-migrated on HPLC with the standard 1α,24-(OH)2 D2

C=C1CC[C@H](O)C/C1=C/C=C1\CCC[C@]2(C)[C@@H]([C@H](C)/C=C/[C@H](C)C(C)C)CC[C@@H]12 [vitamin D2]
plasma metabolite 1α,24-(OH)2 D2 found after administration ([4]; vitamin D-deficient rats, oral or intraperitoneal, HPLC of plasma lipid extracts): co-migrated on HPLC with the standard 1α,24-(OH)2 D2

C=C1CC[C@H](O)C/C1=C/C=C1\CCC[C@]2(C)[C@@H]([C@H](C)CCCC(C)C)CC[C@@H]12 [vitamin D3]
24-hydroxylated metabolite in plasma after administration ([4]; comparable vitamin D-deficient rats): no detectable 24-OH-D3
